System: β-lactamase
Assay: Detection of fluorescence of compound 15 with β-lactamase (microwell plate, plate fluorimeter)
Assay type: biochemical
Conditions: 75 μ, 37° C., 10 U.mL^−1, fluorescence measured over time, FIG. 1
Procedure: The fluorescence of compound 15 was evaluated with and without a β-lactamase. The test was performed by incubation/chemical reaction in a microwell plate (75 μ, 37° C., 10 U.mL^−1). The fluorescence was measured over time by a plate fluorimeter.

## O=C(Cc1cccs1)N[C@@H]1C(=O)N2C(C(=O)O)=C(COC(=O)NCC3CCCCN3C(=O)Oc3ccc(Cl)cc3-c3nc4ccc(Cl)cc4c(=O)[nH]3)CS[C@H]12 (stereo partly shown) [Compound 15]
  fluorescence generated in the presence of β-lactamase (hydrolysis, fragmentation and release of ELF 97): intense fluorescence

From US20230057033A1, “FLUOROGENIC BETA-LACTAMASE SUBSTRATE AND ASSOCIATED DETECTION METHOD” (MOLSID, priority 2019, published 2023)
